Where a chain is given by its changes, count along the chain named.
How the values were obtained:
Bcr-Abl^wt = target: T1, Bcr-Abl^wt (Homo sapiens, UniProt P00519); assay: Kinase activation assay (IC50), fluorescence polarization tyrosine kinase assay kit; type: biochemical; conditions: kinase domain (Millipore), Poly (Glu, Tyr) 4:1 substrate, FP readout
T1 construct: purchased Millipore
T1 sequence (P00519 242-493 limits assumed): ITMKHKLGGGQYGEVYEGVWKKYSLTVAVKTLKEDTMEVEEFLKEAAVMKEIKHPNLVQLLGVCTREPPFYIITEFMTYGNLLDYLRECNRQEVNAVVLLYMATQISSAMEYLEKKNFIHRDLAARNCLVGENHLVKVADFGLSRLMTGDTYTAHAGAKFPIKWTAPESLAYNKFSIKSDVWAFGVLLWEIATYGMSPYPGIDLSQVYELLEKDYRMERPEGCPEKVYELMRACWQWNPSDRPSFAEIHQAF
Procedure: (§1) Test 1: Kinase Activation Assay (IC50)
(§2) A kinase domain (Millipore) comprising the entire cytoplasmic sequences of Bcr-Abl^wt and Bcr-Abl^T315I mutation kinases and a tyrosine kinase assay kit (Panvera, P2837) were used to measure an inhibitory activation on Bcr-abl. Other kinases such as FGFR, Flt, KDR, PDGFR, Fms, Kit, Raf, Tie2, Src, and Ret were also measured by the same method. In order to prepare a sample, the each compound obtained in Examples 1 to 128 was diluted 10 times with a kinase buffer to a concentration of 10˜0.0001 μM.
(§3) The each kinase was diluted with a kinase buffer to a concentration of 30˜300 ng/assay by using the each Kd value. The kinase buffer consisted of 100 mM HEPES (PH 7.4), 25 mM MgCl2, 10 mM MnCl2, and 250 μM Na3VO4, being kept refrigerated after filtered.
(§4) The test was conducted in 96 well polystyrene round bottom plates. First, 10 μL of the diluted sample was combined with 10 μL of the enzyme solution at room temperature for 10 minutes using a shaker. 10 μL of Poly (Glu, Tyr) 4:1 (Sigma) matrix solution in an appropriate concentration and 10 μL of ATP solution (5˜300 μM) were added to the sample and subjected to a reaction at room temperature for 60 minutes in a shaker. After 60 minutes, an EDTA solution was added thereto to complete the kinase reaction and the reaction mixture was left in a shaker for 5 minutes at room temperature. A tracer, an antibody, and a fluorescence polarization (FP) diluted reaction solution were mixed at a ratio of 1:1:3 to prepare a detecting solution, 50 μL of which was added to the each sample and subjected to a reaction at room temperature for 30 minutes in a shaker. As fluorescing, light was blocked out and the FP value was measured using a FP instrument (excitation wavelength: 485 nm, and emission wavelength: 530 nm).
(§5) And the inhibition on kinase reaction was calculated for the sample in the range of 0˜100% as compared to the control group, and the concentration on x-axis at 50% inhibition was obtained as an inhibitory concentration (IC50) value.
(§6) 50% inhibitory concentration (IC50) Y=bottom+(top−bottom)/(1+10exp(X−log IC50)

Bcr-Abl^T315I = target: T2, Bcr-Abl^T315I (Homo sapiens, UniProt P00519, T315I); assay: as above; type: biochemical; conditions: T315I mutation kinase domain (Millipore), Poly (Glu, Tyr) 4:1 substrate, FP readout
T2 construct: purchased Millipore
T2 sequence (P00519 242-493 T315I limits assumed): T1 sequence (P00519 242-493 limits assumed) with T74I
Procedure: as §1, §2, §3, §4, §5, §6

| SMILES | IC50 (Bcr-Abl^wt) [nM] | IC50 (Bcr-Abl^T315I) [nM] |
| --- | --- | --- |
| Cc1ccc(C(=O)Nc2cccc(C(F)(F)F)c2)cc1NC(=O)c1csc2c(N)ncnc12 [Example 8, 4-amino-N-(2-methyl-5-(3-(trifluoromethyl)phenylcarbamoyl)phenyl)thieno[3,2-d]pyrimidine-7-carboxamide] | 1 to 100 | 1 to 100 |
| Cc1ccc(NC(=O)c2cccc(C(F)(F)F)c2)cc1NC(=O)c1csc2c(N)ncnc12 [Example 39, 4-amino-N-(2-methyl-5-(3-(trifluoromethyl)benzamido)phenyl)thieno[3,2-d]pyrimidine-7-carboxamide] | 1 to 100 | 1 to 100 |
| COc1cc(NC(=O)c2ccc(C)c(NC(=O)c3csc4c(N)ncnc34)c2)cc(OC)c1 [Example 12, 4-amino-N-(5-(3,5-dimethoxyphenylcarbamoyl)-2-methylphenyl)thieno[3,2-d]pyrimidine-7-carboxamide] | 1 to 100 | 100 to 1000 |
| Cc1ccc(NC(=O)c2cccc(C(F)(F)F)c2)cc1/C=C/c1csc2c(N)ncnc12 [Example 6, (E)-N-(3-(2-(4-aminothieno[3,2-d]pyrimidine-7-yl)vinyl)-4-methylphenyl)-3-(trifluoromethyl)benzamide] | 100 to 1000 | 1000 to 10000 |
| Cc1ccc(NC(=O)c2cc(C3CC3)on2)cc1NC(=O)c1csc2c(N)ncnc12 [Example 67, N-(3-(4-aminothieno[3,2-d]pyrimidine-7-carboxyamido)-4-methylphenyl)-5-cyclopropylisoxazol-3-carboxamide] | 1 to 100 | 1000 to 10000 |
| Cc1ccc(NC(=O)c2ccc(C(F)(F)F)cc2)cc1NC(=O)c1csc2c(N)ncnc12 [Example 66, 4-amino-N-(2-methyl-5-(4-(trifluoromethyl)benzamido)phenyl)thieno[3,2-d]pyrimidine-7-carboxamide] | 100 to 1000 | 1000 to 10000 |
| Cc1ccc(NC(=O)c2cc(-n3cccc3)cc(C(F)(F)F)c2)cc1NC(=O)c1csc2c(N)ncnc12 [Example 45, N-(5-(3-(1H-pyrrol-1-yl)-5-(trifluoromethyl)benzamido)-2-methylphenyl)-4-aminothieno[3,2-d]pyrimidine-7-carboxamide] | 1 to 100 | 1 to 100 |
| COc1cccc(C(=O)Nc2ccc(C)c(NC(=O)c3csc4c(N)ncnc34)c2)c1 [Example 65, 4-amino-N-(5-(3-methoxybenzamido)-2-methylphenyl)thieno[3,2-d]pyrimidine-7-carboxamide] | 1 to 100 | 1000 to 10000 |

Further lines, results first:

| IC50 (Bcr-Abl^wt) [nM] | IC50 (Bcr-Abl^T315I) [nM] | SMILES |
| --- | --- | --- |
| 1 to 100 | 1 to 100 | Cc1cn(-c2cc(C(=O)Nc3ccc(F)c(NC(=O)c4csc5c(NC6CC6)ncnc45)c3)cc(C(F)(F)F)c2)cn1 [Example 121, 4-(cyclopropylamino)-N-(2-fluoro-5-(3-(4-methyl-1H-imidazole-1-yl)-5-(trifluoromethyl)benzoamido)phenyl)thieno[3,2-d]pyrimidine-7-carboxamide] |
| 1 to 100 | 1 to 100 | Cc1ccc(NC(=O)c2ccc(CN3CC[C@H](N(C)C)C3)c(C(F)(F)F)c2)cc1NC(=O)c1csc2c(NC3CC3)ncnc12 [Example 76, (S)-4-(cyclopropylamino)-N-(5-(4-((3-(dimethylamino)pyrrolidin-1-yl)methyl)-3-(trifluoromethyl)benzoamido)-2-methylphenyl)thieno[3,2-d]pyrimidine-7-carboxamide] |
| 1 to 100 | 100 to 1000 | Cc1ccc(NC(=O)c2cc(N3CCOCC3)cc(C(F)(F)F)c2)cc1NC(=O)c1csc2c(NC3CC3)ncnc12 [Example 86] |
| 1 to 100 | 100 to 1000 | CNc1ncnc2c(C(=O)Nc3cc(NC(=O)c4cc(-n5cnc(C)c5)cc(C(F)(F)F)c4)ccc3C)csc12 [Example 78, N-(2-methyl-5-(3-(4-methyl-1H-imidazole-1-yl)-5-(trifluoromethyl)benzoamido)phenyl)-4-(methylamino)thieno[3,2-d]pyrimidine-7-carboxamide] |
| 1 to 100 | 1 to 100 | Cc1ccc(NC(=O)c2ccc(CN3CCCN(C)CC3)c(C(F)(F)F)c2)cc1NC(=O)c1csc2c(NC3CC3)ncnc12 [Example 87, 4-(cyclopropylamino)-N-(2-methyl-5-(4-((4-methyl-1,4-diazepan-1-yl)methyl)-3-(trifluoromethyl)benzoamido)phenyl)thieno[3,2-d]pyrimidine-7-carboxamide] |
| 1 to 100 | 1 to 100 | Cc1ccc(NC(=O)c2cc(-n3ccnc3C)cc(C(F)(F)F)c2)cc1NC(=O)c1csc2c(NC3CC3)ncnc12 [Example 83, 4-(cyclopropylamino)-N-(2-methyl-5-(3-(2-methyl-1H-imidazole-1-yl)-5-(trifluoromethyl)benzoamido)phenyl)thieno[3,2-d]pyrimidine-7-carboxamide] |
| 100 to 1000 | 100 to 1000 | Cc1ccc(NC(=O)c2cc(N3CCC[C@H]3C)cc(C(F)(F)F)c2)cc1NC(=O)c1csc2c(NC3CC3)ncnc12 [Example 113, (R)-4-(cyclopropylamino)-N-(2-methyl-5-(3-(2-methylpyrrolidine-1-yl)-5-(trifluoromethyl)benzoamido)phenyl)thieno[3,2-d]pyrimidine-7-carboxamide] |
